Source: patent US10745382B2 (BRISTOL-MYERS SQUIBB COMPANY, priority 2015, dated 2020)

What follows are molecules tested against T1, PD-1/PD-L1 (Homo sapiens, UniProt Q9NZQ7) (assay: PD-1/PD-L1 Homogenous Time-Resolved Fluorescence (HTRF) binding assay). Details: PD-L1-His 10 nM, PD-1-Ig 20 nM; numeric IC50; read-out: Range or IC50.
T1 construct: made in house; host or cells: HEK293T
Outline: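 Additional pairs run were PD-1-Ig with PD-L2-His (20 & 5 nM) and CD80-His with PD-L1-Ig (100 & 10 nM), all human proteins. Buffer: dPBS plus 0.1% BSA, 0.05% Tween-20; time-resolved FRET read-out via 1 nM Eu-cryptate anti-Ig and 20 nM APC anti-His, final concentrations.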

T1 sequence (Q9NZQ7 with tags, fused parts or gaps): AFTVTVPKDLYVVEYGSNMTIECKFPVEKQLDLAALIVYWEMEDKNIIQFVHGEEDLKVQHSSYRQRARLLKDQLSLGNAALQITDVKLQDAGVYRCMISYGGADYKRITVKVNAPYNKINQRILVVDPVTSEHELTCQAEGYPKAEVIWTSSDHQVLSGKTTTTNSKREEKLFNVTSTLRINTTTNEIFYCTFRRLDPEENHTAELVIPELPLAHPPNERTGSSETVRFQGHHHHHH

Q: With `Cc1c(COc2cc(OCc3cncc(C#N)c3)c(CNC(CO)CO)cc2Cl)cccc1-c1cccc(OCCCN2CCCCC2)c1C` [Example 2291, 5-((4-chloro-2-(((1,3-dihydroxypropan-2-yl)amino)methyl)-5-((2,2′-dimethyl-3′-(3-(piperidin-1-yl)propoxy)-[1,1′-biphenyl]-3-yl)methoxy)phenoxy)methyl)nicotinonitrile] as the molecule, how does the IC50 read?
A: Its IC50 is 0.0019 µM.

Q: For `Cc1c(COc2cc(OCCCN3CC[C@@H](O)C3)c(CN3CCCC[C@H]3C(=O)O)cc2Cl)cccc1-c1cccc(OCCCN2CC[C@@H](O)C2)c1C` [Example 1529, (S)-1-(5-chloro-2-(3-((R)-3-hydroxypyrrolidin-1-yl)propoxy)-4-((3′-(3-((R)-3-hydroxypyrrolidin-1-yl)propoxy)-2,2′-dimethyl-[1,1′-biphenyl]-3-yl)methoxy)benzyl)piperidine-2-carboxylic Acid], which IC50 is on record?
A: Its IC50 is 0.002 µM.

Same assay, conditions: PD-L1-His 10 nM, PD-1-Ig 20 nM; value given as range class; read-out: Range or IC50

Q: Which IC50 does the source give for `Cc1c(COc2cc(OCc3cncc(C#N)c3)c(CNC(CO)CO)cc2Cl)cccc1-c1cccc(NC(=O)CNC2CC2)c1C` [Example 2347, N-(3′-((2-chloro-5-((5-cyanopyridin-3-yl)methoxy)-4-(((1,3-dihydroxypropan-2-yl)amino)methyl)phenoxy)methyl)-2,2′-dimethyl-[1,1′-biphenyl]-3-yl)-2-(cyclopropylamino)acetamide] here?
A: The IC50 was 0.00021 to 0.01 µM.

Q: How did the IC50 turn out when `Cc1c(COc2cc(OCc3cncc(C#N)c3)c(CN3CCCC[C@H]3C(=O)O)cc2Cl)cccc1-c1cccc(OCCCN2CCC(O)C2)c1C` (stereo in doubt) [Example 3006, (S)-1-(5-chloro-2-((5-cyanopyridin-3-yl)methoxy)-4-((3′-(3-((R)-3-hydroxypyrrolidin-1-yl)propoxy)-2,2′-dimethyl-[1,1′-biphenyl]-3-yl)methoxy)benzyl)piperidine-2-carboxylic Acid] was run?
A: Its IC50 is 0.00021 to 0.01 µM.

Q: `CC(=O)NC1CCN(CCCOc2cccc(-c3cccc(COc4cc(OCc5cncc(C#N)c5)c(CN5CCCC[C@H]5C(=O)O)cc4Cl)c3C)c2C)CC1` [Example 1105, (S)-1-(4-((3′-(3-(4-acetamidopiperidin-1-yl)propoxy)-2,2′-dimethyl-[1,1′-biphenyl]-3-yl)methoxy)-5-chloro-2-((5-cyanopyridin-3-yl)methoxy)benzyl)piperidine-2-carboxylic Acid] was tested. Which IC50 did it give?
A: The IC50 was 0.00021 to 0.01 µM.

Q: For `Cc1c(COc2cc(OCc3cncc(C#N)c3)c(CN3CCCC[C@H]3C(=O)O)cc2Cl)cccc1-c1cccc(OCCCN(C)CCO)c1C` [Example 2233, (2S)-1-(5-chloro-2-((5-cyanopyridin-3-yl)methoxy)-4-((3′-(3-((2-hydroxyethyl)(methyl)amino)propoxy)-2,2′-dimethylbiphenyl-3-yl)methoxy)benzyl)piperidine-2-carboxylic Acid], which IC50 is on record?
A: Its IC50 is 0.00021 to 0.01 µM.

Q: For `Cc1c(COc2cc(OCc3cncc(C#N)c3)c(CN[C@](C)(CO)C(=O)O)cc2Cl)cccc1-c1cccc(OCCCN2CCC(CO)(C(=O)O)CC2)c1Cl` [Example 1115, (R)-1-(3-((3′-((4-(((2-carboxy-1-hydroxypropan-2-yl)amino)methyl)-2-chloro-5-((5-cyanopyridin-3-yl)methoxy)phenoxy)methyl)-2-chloro-2′-methyl-[1,1′-biphenyl]-3-yl)oxy)propyl)-4-(hydroxymethyl)piperidine-4-carboxylic Acid], which IC50 is on record?
A: Its IC50 is 0.00021 to 0.01 µM.

Q: Which IC50 does the source give for `CC(=O)NC1CCN(CCCOc2cccc(-c3cccc(COc4cc(OCc5cncc(C#N)c5)c(CN5CCCC[C@H]5C(=O)O)cc4Cl)c3C)c2C)C1` (stereo partly drawn) [Example 2215, (2S)-1-(4-((3′-(3-(3-acetamidopyrrolidin-1-yl)propoxy)-2,2′-dimethylbiphenyl-3-yl)methoxy)-5-chloro-2-((5-cyanopyridin-3-yl)methoxy)benzyl)piperidine-2-carboxylic Acid] here?
A: Its IC50 is 0.00021 to 0.01 µM.

Q: With `Cc1c(COc2cc(OCc3cncc(C#N)c3)c(CN[C@@](C)(CO)C(=O)O)cc2Cl)cccc1-c1cccc(OCCN2CCOCC2)c1` [Example 1002, (S)-2-((5-chloro-2-((5-cyanopyridin-3-yl)methoxy)-4-((2-methyl-3′-(2-morpholinoethoxy)-[1,1′-biphenyl]-3-yl)methoxy)benzyl)amino)-3-hydroxy-2-methylpropanoic Acid] as the molecule, how does the IC50 read?
A: The IC50 was 0.01 to 0.1 µM.

Q: For `Cc1c(COc2cc(OCc3cncc(C#N)c3)c(C=O)cc2Cl)cccc1-c1ccc2c(c1)OC(CCN1CC[C@H](O)C1)CO2` (mixture of isomers) [Example 1502, 5-((4-chloro-2-formyl-5-((3-(3-(2-((S)-3-hydroxypyrrolidin-1-yl)ethyl)-2,3-dihydrobenzo[b][1,4]dioxin-6-yl)-2-methylbenzyl)oxy)phenoxy)methyl)nicotinonitrile], which IC50 is on record?
A: The IC50 was 0.01 to 0.1 µM.

Q: How did the IC50 turn out when `Cc1c(OCCCNC[C@H](O)CO)cccc1-c1cccc(COc2cc(OCc3cncc(C#N)c3)c(CN3CCCC[C@H]3C(=O)O)cc2Cl)c1Cl` [Example 2303, (S)-1-(5-chloro-4-((2-chloro-3′-(3-(((S)-2,3-dihydroxypropyl)amino)propoxy)-2′-methyl-[1,1′-biphenyl]-3-yl)methoxy)-2-((5-cyanopyridin-3-yl)methoxy)benzyl)piperidine-2-carboxylic Acid] was run?
A: The IC50 was 0.00021 to 0.01 µM.

Q: `Cc1c(COc2cc(OCc3cncc(S(C)(=O)=O)c3)c(CN3CCCC[C@H]3C(=O)O)cc2Cl)cccc1-c1cccc(OCCCN2C[C@H](O)C[C@H]2C(=O)O)c1Cl` [Example 1081, (S)-1-(4-((3′-(3-((2S,4R)-2-carboxy-4-hydroxypyrrolidin-1-yl)propoxy)-2′-chloro-2-methyl-[1,1′-biphenyl]-3-yl)methoxy)-5-chloro-2-((5-(methylsulfonyl)pyridin-3-yl)methoxy)benzyl)piperidine-2-carboxylic Acid] was tested. Which IC50 did it give?
A: Its IC50 is 0.00021 to 0.01 µM.

Q: With `Cc1c(COc2cc(OCc3cncc(C#N)c3)c(CN3CCCC[C@H]3C(=O)O)cc2Cl)cccc1-c1cccc(O[C@H](C)CCN2CC[C@@H](O)C2)c1Cl` [Example 1523] as the molecule, how does the IC50 read?
A: Its IC50 is 0.00021 to 0.01 µM.

Q: With `Cc1c(COCCN2CC[C@@H](O)C2)cccc1-c1cccc(COc2cc(OCc3cncc(C#N)c3)c(CNC(CO)CO)cc2Cl)c1C` [Example 4122, (R)-5-((4-chloro-2-(((1,3-dihydroxypropan-2-yl)amino)methyl)-5-((3′-((2-(3-hydroxypyrrolidin-1-yl)ethoxy)methyl)-2,2′-dimethyl-[1,1′-biphenyl]-3-yl)methoxy)phenoxy)methyl)nicotinonitrile] as the molecule, how does the IC50 read?
A: Its IC50 is 0.00021 to 0.01 µM.

Q: Which IC50 does the source give for `Cc1c(COc2cc(OCc3cncc(C#N)c3)c(CN(C)CC(C)(C)O)cc2Cl)cccc1-c1cccc(OCCCN2CC[C@@H](O)C2)c1Cl` [Example 2068, (R)-5-((4-chloro-5-((2′-chloro-3′-(3-(3-hydroxypyrrolidin-1-yl)propoxy)-2-methyl-[1,1′-biphenyl]-3-yl)methoxy)-2-(((2-hydroxy-2-methylpropyl)(methyl)amino)methyl)phenoxy)methyl)nicotinonitrile] here?
A: Its IC50 is 0.00021 to 0.01 µM.

Q: `Cc1c(OCCCNC[C@H](O)CO)cccc1-c1cccc(COc2cc(OCc3cncc(C#N)c3)c(CNC(C)(CO)CO)cc2Cl)c1Cl` [Example 2307, (S)-5-((4-chloro-5-((2-chloro-3′-(3-((2,3-dihydroxypropyl)amino)propoxy)-2′-methyl-[1,1′-biphenyl]-3-yl)methoxy)-2-(((1,3-dihydroxy-2-methylpropan-2-yl)amino)methyl)phenoxy)methyl)nicotinonitrile] was tested. Which IC50 did it give?
A: The IC50 was 0.00021 to 0.01 µM.

Q: `Cc1c(COc2cc(OCc3cncc(C#N)c3)c(CN3CCCC[C@H]3C(=O)O)cc2Cl)cccc1-c1cccc(OCCCN2CCC(O)(c3ccccc3)C2)c1C` (stereo partly drawn) [Example 3040, (2S)-1-(5-chloro-2-((5-cyanopyridin-3-yl)methoxy)-4-((3′-(3-(3-hydroxy-3-phenylpyrrolidin-1-yl)propoxy)-2,2′-dimethyl-[1,1′-biphenyl]-3-yl)methoxy)benzyl)piperidine-2-carboxylic Acid] was tested. Which IC50 did it give?
A: The IC50 was 0.00021 to 0.01 µM.

Q: With `Cc1c(COc2cc(OCc3cncc(C#N)c3)c(CN3CCCC[C@H]3C(=O)O)cc2Cl)cccc1-c1cccc(OCCCN2C[C@H]3CC[C@@H](C2)O3)c1C` [Example 3046, (S)-1-(4-((3′-(3-((1R,5S)-8-oxa-3-azabicyclo[3.2.1]octan-3-yl)propoxy)-2,2′-dimethyl-[1,1′-biphenyl]-3-yl)methoxy)-5-chloro-2-((5-cyanopyridin-3-yl)methoxy)benzyl)piperidine-2-carboxylic Acid] as the molecule, how does the IC50 read?
A: Its IC50 is 0.00021 to 0.01 µM.

Q: How did the IC50 turn out when `CCN(CC)C(=O)c1cccc(-c2cccc(COc3cc(OCc4cncc(C#N)c4)c(CN4CCOC[C@H]4C(=O)O)cc3Cl)c2C)c1C` [Example 4046, (S)-4-(5-chloro-2-((5-cyanopyridin-3-yl)methoxy)-4-((3′-(diethylcarbamoyl)-2,2′-dimethyl-[1,1′-biphenyl]-3-yl)methoxy)benzyl)morpholine-3-carboxylic Acid] was run?
A: Its IC50 is 0.1 to 2 µM.

Q: For `Cc1c(COc2cc(OCc3cncc(C(N)=O)c3)c(CN[C@](C)(CO)C(=O)O)cc2Cl)cccc1-c1cccc(OCCCN2CCC(O)(C(=O)O)CC2)c1C` [Example 1094, (R)-1-(3-((3′-((5-((5-carbamoylpyridin-3-yl)methoxy)-4-(((2-carboxy-1-hydroxypropan-2-yl)amino)methyl)-2-chlorophenoxy)methyl)-2,2′-dimethyl-[1,1′-biphenyl]-3-yl)oxy)propyl)-4-hydroxypiperidine-4-carboxylic Acid], which IC50 is on record?
A: The IC50 was 0.00021 to 0.01 µM.

Q: For `Cc1c(COc2cc(OCc3cncc(C#N)c3)c(CN3CCCC[C@H]3C(=O)O)cc2Cl)cccc1-c1cccc(OCC2(CN3CC[C@@H](O)C3)CC2)c1C` [Example 2346, (S)-1-(5-chloro-2-((5-cyanopyridin-3-yl)methoxy)-4-((3′-((1-(((R)-3-hydroxypyrrolidin-1-yl)methyl)cyclopropyl)methoxy)-2,2′-dimethyl-[1,1′-biphenyl]-3-yl)methoxy)benzyl)piperidine-2-carboxylic Acid], which IC50 is on record?
A: The IC50 was 0.00021 to 0.01 µM.
